# In the RepoRT retention time repository (doi:10.1016/j.scitotenv.2015.08.078):
# Experiment: RP, Waters ACQUITY UPLC BEH C18, 100 × 2.1 mm, 1.7 µm, 0.3 mL/min, estimated dead time 0.73 min; A: water + 0.1% formic acid, pH 3; B: methanol + 0.1% formic acid, pH 3; gradient (min/%B) 0/10 14/90 16/90 18/10
# Conditions: stereoisomer not certain
row,SMILES,LC retention time [min]
1,CC(=O)OCC(=O)C1(O)CCC2C3CCC4=CC(=O)C=CC4(C)C3C(O)CC21C (stereo not drawn) [Prednisolone 21-acetate],9.54
2,CCCOCCN(C(=O)CCl)c1c(CC)cccc1CC [Pretilachlor],12.5
3,COC(=O)c1ccccc1S(=O)(=O)NC(=O)Nc1nc(OC(F)F)cc(OC(F)F)n1 [Primisulfuron-methyl],8.86
4,CCN(CC)CCOC(=O)c1ccc(N)cc1 [Procaine],2.19
5,CCCSP(=O)(OCC)Oc1ccc(Br)cc1Cl (stereo not drawn) [Profenofos],12.7
6,CNC(=O)Oc1cc(C)cc(C(C)C)c1 [Promecarb],10.3
7,CC(CN1c2ccccc2Sc2ccccc21)N(C)C (stereo not drawn) [Promethazine],9.06
8,CSc1nc(NC(C)C)nc(NC(C)C)n1 [Prometryn],10.8
9,CC(C)N(C(=O)CCl)c1ccccc1 [Propachlor],8.99
10,CCCOC(=O)NCCCN(C)C [Propamocarb],2.28
11,CCC(=O)Nc1ccc(Cl)c(Cl)c1 [Propanil],10.3
12,CC(C)=NOCCOC(=O)C(C)Oc1ccc(Oc2cnc3cc(Cl)ccc3n2)cc1 (stereo not drawn) [Propaquizafop],12.9
13,CC(C)Nc1nc(Cl)nc(NC(C)C)n1 [Propazine],9.88
14,CCNP(=S)(OC)OC(C)=CC(=O)OC(C)C (stereo not drawn) [Propetamphos],10.6
15,CCCC1COC(Cn2cncn2)(c2ccc(Cl)cc2Cl)O1 (stereo not drawn) [Propiconazole],12.5
16,CNC(=O)Oc1ccccc1OC(C)C [Propoxur],7.36
17,C#CC(C)(C)NC(=O)c1cc(Cl)cc(Cl)c1 [Propyzamide],10.3
18,CCCN(CCC)C(=O)SCc1ccccc1 [Prosulfocarb],12.6
19,CC1=NNC(=O)N(N=Cc2cccnc2)C1 [Pymetrozine],2.25
20,CCCSP(=O)(OCC)Oc1cnn(-c2ccc(Cl)cc2)c1 (stereo not drawn) [Pyraclofos],12
21,CCOC(=O)c1cn2nc(OP(=S)(OCC)OCC)cc2nc1C [Pyrazophos],11.9
22,CCOC(=O)c1cnn(C)c1S(=O)(=O)NC(=O)Nc1nc(OC)cc(OC)n1 [Pyrazosulfuron-ethyl],7.91

row,SMILES,LC retention time [min]
1,C=CC=CCC1=C(C)C(OC(=O)C2C(C=C(C)C)C2(C)C)CC1=O (stereo not drawn) [Pyrethrin I],13.7
2,CC(C)(C)c1ccc(CSc2cnn(C(C)(C)C)c(=O)c2Cl)cc1 [Pyridaben],14
3,CCOP(=S)(OCC)Oc1ccc(=O)n(-c2ccccc2)n1 [Pyridaphenthion],12.1
4,CCCCCCCCSC(=O)Oc1cc(Cl)nnc1-c1ccccc1 [Pyridate],14.3
5,CCc1nc(N)nc(N)c1-c1ccc(Cl)cc1 [Pyrimethamine],7.2
6,Cc1cc(C)nc(Nc2ccccc2)n1 [Pyrimethanil],9.86
7,CC(COc1ccc(Oc2ccccc2)cc1)Oc1ccccn1 (stereo not drawn) [Pyriproxyfen],14
8,O=C1CCc2cccc3c2N1CC3 [Pyroquilon],7.09
9,CCOP(=S)(OCC)Oc1cnc2ccccc2n1 [Quinalphos],11.3
10,Cc1cnc2c(C(=O)O)c(Cl)ccc2c1 [Quinmerac],3.44
11,COC(=O)C(C)Oc1ccc(Oc2cnc3cc(Cl)ccc3n2)cc1 (stereo not drawn) [Quizalofop methyl],12.1
12,CC(CCc1ccc(O)cc1)NCC(O)c1ccc(O)cc1 (stereo not drawn) [Ractopamine],4.5
13,COC(=O)C1C2CC3c4[nH]c5cc(OC)ccc5c4CCN3CC2CC(OC(=O)c2cc(OC)c(OC)c(OC)c2)C1OC (stereo not drawn) [Reserpine],8.76
14,CCS(=O)(=O)c1cccnc1S(=O)(=O)NC(=O)Nc1nc(OC)cc(OC)n1 [Rimsulfuron],5.84
15,NC(=NN=Cc1ccc(Cl)cc1)NN=Cc1ccc(Cl)cc1 [Robenidine],10.9
16,Cn1c([N+](=O)[O-])cnc1COC(N)=O [Ronidazole],1.79
17,CCC1OC(=O)C(C)C(OC2CC(C)(OC)C(O)C(C)O2)C(C)C(OC2OC(C)CC(N(C)C)C2O)C(C)(O)CC(C)C(=NOCOCCOC)C(C)C(O)C1(C)O (stereo not drawn) [Roxithromycin],10.7
18,CC(C)(C)NCC(O)c1ccc(O)c(CO)c1 (stereo not drawn) [Salbutamol],2.03
19,O=C(O)c1ccccc1O [Salicylic acid],4.4
20,CCC(C(=O)O)C1CCC(C)C(C(C)C(O)C(C)C(=O)C(CC)C2OC3(C=CC(O)C4(CCC(C)(C5CCC(O)(CC)C(C)O5)O4)O3)C(C)CC2C)O1 (stereo not drawn) [Salinomycin],15.9
21,O=C(O)c1cn(-c2ccc(F)cc2)c2cc(N3CCNCC3)c(F)cc2c1=O [Sarafloxacin],5.12
22,CCCC(=NOCC)C1C(=O)CC(CC(C)SCC)CC1=O (stereo not drawn) [Sethoxydim],11.8

row,SMILES,LC retention time [min]
1,CC1CCCCC1NC(=O)Nc1ccccc1 (stereo not drawn) [Siduron A],9.88
2,CCNc1nc(Cl)nc(NCC)n1 [Simazine],7.91
3,CCNc1nc(NCC)nc(SC)n1 [Simetryn],8.78
4,CCC(C)(C)C(=O)OC1CC(C)C=C2C=CC(C)C(CCC3CC(O)CC(=O)O3)C21 (stereo not drawn) [Simvastatin],14.2
5,CCC1CCCC(OC2CCC(N(C)C)C(C)O2)C(C)C(=O)C2=CC3C(C=CC4CC(OC5OC(C)C(OC)C(OC)C5OC)CC43)C2CC(=O)O1 (stereo not drawn) [Spinosyn A],12
6,CCC1CCCC(OC2CCC(N(C)C)C(C)O2)C(C)C(=O)C2=CC3C(C=C(C)C4CC(OC5OC(C)C(OC)C(OC)C5OC)CC43)C2CC(=O)O1 (stereo not drawn) [Spinosyn D],12.5
7,CCCN(CC)CC1COC2(CCC(C(C)(C)C)CC2)O1 (stereo not drawn) [Spiroxamine],10
8,CC12Cc3cn[nH]c3CC1CCC1C2CCC2(C)C1CCC2(C)O (stereo not drawn) [Stanozolol],12
9,Nc1ccc(S(=O)(=O)NC(=O)c2ccccc2)cc1 [Sulfabenzamide],3
10,Nc1ccc(S(=O)(=O)Nc2ncccn2)cc1 [Sulfadiazine],2.09
11,COc1ncnc(NS(=O)(=O)c2ccc(N)cc2)c1OC [Sulfadoxine],5
12,Cc1ccnc(NS(=O)(=O)c2ccc(N)cc2)n1 [Sulfamerazine],2.75
13,COc1cnc(NS(=O)(=O)c2ccc(N)cc2)nc1 [Sulfameter],3.2
14,Cc1cc(C)nc(NS(=O)(=O)c2ccc(N)cc2)n1 [Sulfamethazine],3.59
15,Cc1nnc(NS(=O)(=O)c2ccc(N)cc2)s1 [Sulfamethiazole],3.19
16,Cc1cc(NS(=O)(=O)c2ccc(N)cc2)no1 [Sulfamethoxazole],3.91
17,COc1ccc(NS(=O)(=O)c2ccc(N)cc2)nn1 [Sulfamethoxypyridazine],3.65
18,CC(=O)Nc1ccc(S(=O)(=O)Nc2ccc([N+](=O)[O-])cc2)cc1 [Sulfanitran],7.27
19,Nc1ccc(S(=O)(=O)Nc2ccccn2)cc1 [Sulfapyridine],2.55
20,Nc1ccc(S(=O)(=O)Nc2nccs2)cc1 [Sulfathiazole],2.26
21,CCS(=O)(=O)c1nc2ccccn2c1S(=O)(=O)NC(=O)Nc1nc(OC)cc(OC)n1 [Sulfosulfuron],6.42
22,CCOP(=S)(OCC)OP(=S)(OCC)OCC [Sulfotep],11.5

row,SMILES,LC retention time [min]
1,CCCSP(=S)(OCC)Oc1ccc(SC)cc1 (stereo not drawn) [Sulprofos],14.2
2,CC(=O)OCC12CC(OC(=O)CC(C)C)C(C)=CC1OC1C(O)C(OC(C)=O)C2(C)C12CO2 (stereo not drawn) [T2 Toxin],9.98
3,CCCCCc1cc(O)c2c(c1)OC(C)(C)C1CC=C(C(=O)O)CC21 (stereo not drawn) [THC-COOH],13.9
4,CCCCCc1cc(O)c2c(c1)OC(C)(C)C1CCC(C)=CC21 (stereo not drawn) [THC],15.2
5,CC(C)(C)C(O)(CCc1ccc(Cl)cc1)Cn1cncn1 (stereo not drawn) [Tebuconazole],11.8
6,CCc1ccc(C(=O)NN(C(=O)c2cc(C)cc(C)c2)C(C)(C)C)cc1 [Tebufenozide],11.5
7,CCc1nn(C)c(C(=O)NCc2ccc(C(C)(C)C)cc2)c1Cl [Tebufenpyrad],13.2
8,CC(C)N(Cc1ccccc1)C(=O)C(C)(C)C [Tebutam],11.1
9,CNC(=O)N(C)c1nnc(C(C)(C)C)s1 [Tebuthiuron],7.79
10,O=C(NC(=O)c1c(F)cccc1F)Nc1cc(Cl)c(F)c(Cl)c1F [Teflubenzuron],13
11,CN1C(=O)C(O)N=C(c2ccccc2)c2cc(Cl)ccc21 (stereo not drawn) [Temazepam],10.1
12,COP(=S)(OC)Oc1ccc(Sc2ccc(OP(=S)(OC)OC)cc2)cc1 [Temephos (Abate)],13
13,Cc1[nH]c(=O)n(C(C)(C)C)c(=O)c1Cl [Terbacil],7.42
14,CN(CC=CC#CC(C)(C)C)Cc1cccc2ccccc12 [Terbinafine],13.7
15,CCNc1nc(NC(C)(C)C)nc(OC)n1 [Terbumeton],8.02
16,CCNc1nc(Cl)nc(NC(C)(C)C)n1 [Terbuthylazine],10.5
17,CCNc1nc(NC(C)(C)C)nc(SC)n1 [Terbutryn],9.91
18,Cc1ncc([N+](=O)[O-])n1CCCO [Ternidazole],2.89
19,FC(F)C(F)(F)OCC(Cn1cncn1)c1ccc(Cl)cc1Cl (stereo not drawn) [Tetraconazole],11.6
20,CN(C)C1C(=O)C(C(N)=O)=C(O)C2(O)C(=O)C3=C(O)c4c(O)cccc4C(C)(O)C3CC12 (stereo not drawn) [Tetracycline],4.37
21,CC(C)=CC1C(C(=O)OCN2C(=O)C3=C(CCCC3)C2=O)C1(C)C (stereo not drawn) [Tetramethrin],12.8
22,N#CN=C1SCCN1Cc1ccc(Cl)nc1 [Thiacloprid],6.28
